What was measured:
[1] = biological target: T1, BRAF^V600E (SK-MEL-28 cells, homozygous) (Homo sapiens, UniProt P15056, V600E); experiment: BRAF degradation by immunoblot in SK-MEL-28 cells; format: cell-based
T1 construct: endogenous in cells; host or cells: SK-MEL-28
Description: (§1) Cells were plated in 6 well dishes (5 × 10^5–8 × 10^5 cells) and allowed to attach overnight. […] The plates were then placed on ice and washed 1x with chilled PBS and lysed in buffer containing 25 mM Tris-HCl [pH 7.4], 0.25% sodium deoxycholate, 150 mM NaCl, 1% Triton X-100, supplemented with protease inhibitors (1x Roche protease inhibitor cocktail) and phosphatase inhibitors (10 mM NaF, 1 mM Na3OV4, and 20 mM β-glycerophosphate). Lysates were then cleared at 21,000 g for 10 min at 4 °C. Protein concentrations of the supernatants were then quantified using a Pierce BCA Protein Assay. 12–40 µg of protein were separated using a gradient (4–20%) Criterion TGX precast gel and transferred unto a nitrocellulose membrane. The membranes were then blocked in 5% non-fat milk in TBST (Tris-buffered Saline with Tween 20) for 1 h before probing with the indicated primary antibody overnight. Membranes were imaged using Bio-Rad Image Lab software using ECL prime detection reagent (GE Healthcare, RPN2232 or ThermoScientific, 34095).
(§2) Western blot data was quantified by using the band feature in Image Lab, and values were averaged and analyzed in GraphPad Prism. DC50 and DMAX values were fitted using a three parameter [inhibitor] versus response and reported directly from the Prism output. Mean ± SD and unpaired t-tests were performed in GraphPad Prism.

[2] = test system: SK-MEL-239 C4 cells (BRAF^WT/BRAF-p61^V600E); experiment: Cell proliferation (MTS) assay; format: cell-based; conditions: 5 days
[3] = test system: SK-MEL-28 cells (Class 1, BRAF^V600E); experiment: Cell proliferation (MTS) assay; format: cell-based; conditions: Homo sapiens, 72 h, 3 days, read-out: EC50, cell growth
BRAF V600E = BRAF V600E (Homo sapiens, UniProt P15056, V600E); experiment: Elisa kinase inhibition assay (Carna Biosciences); format: biochemical; parameters: purchased Carna Biosciences; conditions: Km ATP, duplicate
Sequence of BRAF V600E (P15056 whole entry V600E): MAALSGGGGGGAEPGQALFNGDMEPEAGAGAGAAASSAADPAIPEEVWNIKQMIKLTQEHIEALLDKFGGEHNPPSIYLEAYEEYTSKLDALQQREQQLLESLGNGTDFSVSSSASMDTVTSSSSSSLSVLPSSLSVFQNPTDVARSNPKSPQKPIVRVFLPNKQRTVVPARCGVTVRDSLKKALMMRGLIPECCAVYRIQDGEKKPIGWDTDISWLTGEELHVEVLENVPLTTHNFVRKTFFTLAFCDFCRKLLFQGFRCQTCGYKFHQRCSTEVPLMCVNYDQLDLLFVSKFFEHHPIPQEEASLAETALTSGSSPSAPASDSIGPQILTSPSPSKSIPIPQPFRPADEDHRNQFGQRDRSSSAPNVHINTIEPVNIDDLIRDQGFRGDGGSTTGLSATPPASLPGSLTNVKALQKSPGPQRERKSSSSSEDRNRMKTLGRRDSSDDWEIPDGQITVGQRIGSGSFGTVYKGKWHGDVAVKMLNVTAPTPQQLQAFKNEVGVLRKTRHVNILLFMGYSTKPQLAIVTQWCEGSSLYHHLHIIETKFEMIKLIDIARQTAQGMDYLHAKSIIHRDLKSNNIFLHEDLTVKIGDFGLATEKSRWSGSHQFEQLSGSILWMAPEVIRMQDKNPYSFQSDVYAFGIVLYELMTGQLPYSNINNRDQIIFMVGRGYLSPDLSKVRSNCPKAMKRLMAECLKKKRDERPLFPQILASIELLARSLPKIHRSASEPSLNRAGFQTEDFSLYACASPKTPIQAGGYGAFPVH
Description: Kinase assays were performed by Carna Biosciences by their protocol in duplicate using Km amounts of ATP calculated for each kinase.

[4] = test system: MEK and ERK phosphorylation (SK-MEL-28 cells); experiment: MEK and ERK phosphorylation by immunoblot in SK-MEL-28 cells; format: cell-based
Description: as §1, §2

[5] = test system: CAL-12-T cells (Class 3, BRAF^G466V); experiment: Cell proliferation (MTS) assay; format: cell-based; conditions: 5 days
Description: […] 2 mg/ml MTS (Promega Corp., Madison, WI: G5421) and 25 μM phenazine methosulfate (Sigma, St. Louis, MO) were combined 19:1 and then added to cells (1 volume combined reagent: 5 volumes medium) and incubated for 1–3 h. Mitochondrial reduction of MTS to the formazan derivative was monitored by measuring the medium’s absorbance at 480 nm using a Perkin Elmer Envision Plate reader.

[6] = test system: SK-MEL-246 cells (Class 2, BRAF^G469A); experiment: Cell proliferation (MTS) assay; format: cell-based
[7] = test system: H1666 cells (Class 3, BRAF^G466V); experiment: Cell proliferation (MTS) assay; format: cell-based; conditions: 5 days

T1 sequence (P15056 whole entry V600E): as above

| Structure (SMILES) | effect on BRAF protein levels [1] | effect on cell growth [2] | EC50 [3] [nM] | IC50 (BRAF V600E) [nM] | concentration giving maximal inhibition of MEK and ERK phosphorylation / maximal suppression of p-ERK [4] [nM] | inhibition of cell growth / effect on cell viability [5] | EC50 ([6]; 120 h, 5-day treatment, read-out: EC50, cell growth) [nM] | cell growth inhibition [7] | inhibition of cellular growth ([6]; 5 days, at concentrations above 1 μM, not sustained at 10 μM) |
| --- | --- | --- | --- | --- | --- | --- | --- | --- | --- |
| CCCS(=O)(=O)Nc1ccc(F)c(C(=O)c2c[nH]c3ncc(-c4ccc(N5CCN(CC(=O)N[C@H](C(=O)N6C[C@@H](O)C[C@H]6C(=O)NCc6ccc(-c7scnc7C)cc6)C(C)(C)C)CC5)cc4)cc23)c1F [SJF-0661] | did not decrease BRAF protein levels | minimal effect | 243 ± 1.09 | 30 | 100 | minimal effect on cell viability | 278 ± 1.07 |  |  |
| CCCS(=O)(=O)Nc1ccc(F)c(C(=O)c2c[nH]c3ncc(-c4ccc(Cl)cc4)cc23)c1F [vemurafenib, reference compound] |  | minimal effect | 215 ± 1.09 |  |  | minimal effect on cell viability |  | less than 50% | some inhibition |

Source: publication PMC7876048, “Mutant-selective degradation by BRAF-targeting PROTACs” (Nature Communications, 2021)
